10 compounds from patent US20230092890A1, “1, 3, 4-Oxadiazole derivative compounds as histone deacetylase 6 inhibitor, and the pharmaceutical composition comprising the same” (Chong Kun Dang Pharmaceutical Corp., priority 2019, published 2023) can be followed below.

For one assay, the target named is T1, HDAC1 (Homo sapiens, UniProt Q13547).
T1 construct: purchased Enzolifesciences BML-AK511
Briefly: HDAC enzyme activity inhibition (in vitro), HDAC1 Fluorimetric Drug Discovery Assay Kit. The class given is biochemical. As to conditions: samples at 100, 1000 and 10000 nM; 37° C. 60 minutes; fluorescence Ex 390, Em 460; read-out: HDAC1 IC50. The essentials: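 Fluorescence read-out (Ex 390/Em 460) after developer step, 30 min at 37° C, following a 60-min 37° C enzyme reaction. Test concentrations: HDAC1 kit, 100–10000 nM (three levels); recombinant human HDAC6, 0.1–1000 nM (five levels).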

The target of the next assay is T2, HDAC6 human recombinant (Homo sapiens, UniProt Q9UBN7).
T2 construct: purchased Calbiochem 382180
T2 sequence (Q9UBN7 1-1215): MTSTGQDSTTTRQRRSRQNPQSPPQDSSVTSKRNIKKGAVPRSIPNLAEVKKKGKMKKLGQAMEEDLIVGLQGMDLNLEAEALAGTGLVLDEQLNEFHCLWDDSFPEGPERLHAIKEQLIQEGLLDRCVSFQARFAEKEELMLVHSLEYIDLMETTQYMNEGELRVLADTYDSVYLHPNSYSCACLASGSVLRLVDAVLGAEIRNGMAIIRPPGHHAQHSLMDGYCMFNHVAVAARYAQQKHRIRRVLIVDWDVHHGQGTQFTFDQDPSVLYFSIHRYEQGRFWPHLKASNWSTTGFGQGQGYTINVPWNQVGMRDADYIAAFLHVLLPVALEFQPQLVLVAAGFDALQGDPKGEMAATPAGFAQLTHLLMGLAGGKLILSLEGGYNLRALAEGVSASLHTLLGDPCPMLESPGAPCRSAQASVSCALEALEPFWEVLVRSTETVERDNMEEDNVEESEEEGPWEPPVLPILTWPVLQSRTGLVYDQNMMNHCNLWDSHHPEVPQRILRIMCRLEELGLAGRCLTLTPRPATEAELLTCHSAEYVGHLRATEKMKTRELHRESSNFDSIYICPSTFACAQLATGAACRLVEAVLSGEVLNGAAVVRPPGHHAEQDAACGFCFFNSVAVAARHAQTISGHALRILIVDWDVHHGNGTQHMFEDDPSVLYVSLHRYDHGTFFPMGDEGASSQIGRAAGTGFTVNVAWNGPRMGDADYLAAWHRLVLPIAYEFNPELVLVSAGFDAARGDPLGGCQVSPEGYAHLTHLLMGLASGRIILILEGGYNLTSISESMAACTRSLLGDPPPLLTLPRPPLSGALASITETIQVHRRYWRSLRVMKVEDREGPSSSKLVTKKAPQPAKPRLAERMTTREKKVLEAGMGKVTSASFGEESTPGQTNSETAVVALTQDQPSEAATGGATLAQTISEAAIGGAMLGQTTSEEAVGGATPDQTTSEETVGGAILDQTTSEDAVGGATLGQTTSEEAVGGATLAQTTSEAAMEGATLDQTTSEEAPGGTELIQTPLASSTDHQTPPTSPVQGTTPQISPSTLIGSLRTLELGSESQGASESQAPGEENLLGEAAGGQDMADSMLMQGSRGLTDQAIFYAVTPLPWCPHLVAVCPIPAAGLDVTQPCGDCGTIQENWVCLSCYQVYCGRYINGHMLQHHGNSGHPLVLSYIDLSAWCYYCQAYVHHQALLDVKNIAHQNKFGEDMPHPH
Briefly: HDAC enzyme activity inhibition (in vitro), HDAC6 assay. Format: biochemical. To be noted: samples at 0.1, 1, 10, 100 and 1000 nM; 37° C. 60 minutes; fluorescence Ex 390, Em 460; read-out: HDAC6 IC50. In a few lines:
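Fluorescence (Ex 390, Em 460) read after a 37° C, 60 min enzyme reaction and a further 30 min developer step at 37° C. Uses recombinant human HDAC6; HDAC1 arm dosed at 100, 1000, 10000 nM.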

T1 sequence (Q13547 whole entry): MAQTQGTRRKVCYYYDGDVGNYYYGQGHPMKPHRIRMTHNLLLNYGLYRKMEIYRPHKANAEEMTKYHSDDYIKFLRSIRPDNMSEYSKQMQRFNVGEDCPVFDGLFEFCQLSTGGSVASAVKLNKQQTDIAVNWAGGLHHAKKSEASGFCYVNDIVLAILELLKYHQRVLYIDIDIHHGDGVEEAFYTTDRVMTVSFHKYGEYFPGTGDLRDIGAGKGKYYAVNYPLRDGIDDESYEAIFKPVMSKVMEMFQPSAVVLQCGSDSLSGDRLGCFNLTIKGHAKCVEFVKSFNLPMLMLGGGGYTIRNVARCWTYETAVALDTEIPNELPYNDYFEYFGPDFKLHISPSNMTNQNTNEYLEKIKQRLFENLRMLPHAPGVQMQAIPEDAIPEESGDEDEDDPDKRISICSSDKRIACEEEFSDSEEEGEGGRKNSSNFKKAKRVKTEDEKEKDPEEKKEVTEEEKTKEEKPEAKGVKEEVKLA

As to `O=c1n(Cc2ccc(-c3nnc(C(F)F)o3)cc2)c2ncccc2n1C1CCN(C2COC2)CC1` [Compound 106, 3-(4-(5-(difluoromethyl)-1,3,4-oxadiazole-2-yl)benzyl)-1-(1-(oxetan-3-yl)piperidine-4-yl)-1,3-dihydro-2H-imidazo[4,5-b]pyridine-2-one], the IC50 on HDAC1 is greater than 10000 nM; on HDAC6 human recombinant, 391 nM.
As to `CN1CCC(n2c(=O)n(Cc3ccc(-c4nnc(C(F)F)o4)cn3)c3ncccc32)CC1` [Compound 107, 3-((5-(5-(difluoromethyl)-1,3,4-oxadiazole-2-yl)pyridine-2-yl)methyl)-1-(1-methylpiperidine-4-yl)-1,3-dihydro-2H-imidazo[4,5-b]pyridine-2-one], the concentration for half-maximal inhibition (IC50) at HDAC1 was greater than 10000 nM; on HDAC6 human recombinant, 174 nM.
Take `O=c1n(Cc2ccc(-c3nnc(C(F)F)o3)cn2)c2ncccc2n1C1CCN(C2COC2)CC1` [Compound 108]: the results for the IC50 at HDAC1 and on HDAC6 human recombinant were greater than 10000 nM and 148 nM, respectively.
Turning to `O=c1n(Cc2ccc(-c3nnc(C(F)(F)F)o3)cn2)c2ccccc2n1C1CC2(COC2)C1` [Compound 109, 1-(2-oxaspiro[3.3]heptane-6-yl)-3-((5-(5-(trifluoromethyl)-1,3,4-oxadiazole-2-yl)pyridine-2-yl)methyl)-1,3-dihydro-2H-benzo[d]imidazole-2-one], the IC50 is greater than 10000 nM at HDAC1 and 623 nM on HDAC6 human recombinant.
With `Cn1c(=O)n(Cc2ccc(-c3nnc(C(F)F)o3)cc2F)c2cc(-c3cccnc3)ccc21` [Compound 110, 3-(4-(5-(difluoromethyl)-1,3,4-oxadiazole-2-yl)-2-fluorobenzyl)-1-methyl-5-(pyridine-3-yl)-1,3-dihydro-2H-benzo[d]imidazole-2-one], the IC50 was greater than 10000 nM at HDAC1 and 234 nM at HDAC6 human recombinant.
With `Cn1c(=O)n(Cc2ccc(-c3nnc(C(F)F)o3)cc2F)c2cc(-c3ccncc3)ccc21` [Compound 111, 3-(4-(5-(difluoromethyl)-1,3,4-oxadiazole-2-yl)-2-fluorobenzyl)-1-methyl-5-(pyridine-4-yl)-1,3-dihydro-2H-benzo[d]imidazole-2-one], the values for the IC50 at HDAC1 and at HDAC6 human recombinant were greater than 10000 nM and 322 nM, respectively.
The matching figures for `Cn1c(=O)n(Cc2ccc(-c3nnc(C(F)F)o3)cc2F)c2cc(-c3cccc(F)c3)ccc21` [Compound 112, 3-(4-(5-(difluoromethyl)-1,3,4-oxadiazole-2-yl)-2-fluorobenzyl)-5-(3-fluorophenyl)-1-m ethyl-1,3-dihydro-2H-benzo[d]imidazole-2-one]: greater than 10000 nM and 864 nM.
For `CN1CCC(n2c(=O)n(Cc3ccc(-c4nnc(C(F)F)o4)cc3F)c3cc(F)c(Br)cc32)CC1` [Compound 113, 5-bromo-1-(4-(5-(difluoromethyl)-1,3,4-oxadiazole-2-yl)-2-fluorobenzyl)-6-fluoro-3-(1-methylpiperidine-4-yl)-1,3-dihydro-2H-benzo[d]imidazole-2-one] the same measures were greater than 10000 nM and 65 nM.
`CN1CCC(n2c(=O)n(Cc3ccc(-c4nnc(C(F)F)o4)cc3F)c3cc(F)c(-c4ccco4)cc32)CC1` [Compound 114, 1-(4-(5-(difluoromethyl)-1,3,4-oxadiazole-2-yl)-2-fluorobenzyl)-6-fluoro-5-(furan-2-yl)-3-(1-methylpiperidine-4-yl)-1,3-dihydro-2H-benzo[d]imidazole-2-one]: the figures for the IC50 on HDAC1 and on HDAC6 human recombinant were greater than 10000 nM and 88 nM, respectively.
Regarding `CN1CCC(n2c(=O)n(Cc3ccc(-c4nnc(C(F)F)o4)cc3F)c3cc(F)c(-c4ccoc4)cc32)CC1` [Compound 115, 1-(4-(5-(difluoromethyl)-1,3,4-oxadiazole-2-yl)-2-fluorobenzyl)-6-fluoro-5-(furan-3-yl)-3-(1-methylpiperidine-4-yl)-1,3-dihydro-2H-benzo[d]imidazole-2-one], the IC50 on HDAC1 is greater than 10000 nM; at HDAC6 human recombinant it was 77 nM.
